From patent US8067602B2, “Asymmetric cyanine fluorescent dyes, compositions and their use in staining biological samples” (Shenzhen Mindray Bio-Medical Electronics Co., Ltd., priority 2008, dated 2011)

Columns and labels:
salmon sperm DNA = assay: Fluorescence intensity of dye in PBS with salmon sperm DNA (excitation 633 nm); format: binding; conditions: for fluorescence of the dye per se in PBS without nucleic acid: PBS without DNA/RNA; for Relative fluorescence intensity after binding DNA / Relative fluorescence intensity before binding DNA: in PBS; for Relative fluorescence intensity after binding DNA: bound with salmon sperm DNA; for Relative fluorescence intensity before binding DNA: no DNA; for Ratio of increase in fluorescence (after vs before binding): salmon sperm DNA in PBS
Method: An amount of Dye-1 was accurately weighed and sufficiently dissolved in 2.5 mL methanol/ethylene glycol (50:50 vol/vol) to prepare a dye solution at a concentration of 5 mM. This solution was filtered before use. Separate amounts of salmon sperm DNA were weighed and dissolved in PBS to obtain PBS buffers containing 3 mg/mL, 1 mg/mL, 0.3 mg/mL, 0.1 mg/mL of DNA. 2-μL aliquots of the prepared 5 mM dye solution were accurately measured and respectively combined in 1 mL PBS with 1 μL of the PBS buffers containing different concentrations of DNA. After reacting for a period of time, the complexes were detected for their emission spectra at the selected excitation wavelength of 633 nm. The detection temperature was at room temperature. The instrument used was fluorescence spectrophotometer Model FL-4500.
FIG. 2 is a comparison of the relative fluorescence strength of Dye-1 in PBS before and after it is bound with DNA.
(§1) The detection procedures followed were those described in Example 10 and Example 11. The fluorescence spectra for the complexes of Dye-2 with different concentrations of DNA or RNA are shown in FIG. 5 and FIG. 6, respectively. The comparisons of fluorescence for Dye-2 before and after it is bound with DNA or with RNA in PBS are shown in FIG. 7 and FIG. 8, respectively.
(§2) The detection procedures followed were those described in Example 10 and Example 11. The comparisons of fluorescence for Dye-3 before and after it bound with DNA or with RNA in PBS are shown in FIG. 9 and FIG. 10, respectively.
Table 1 compares the ratios of increase in fluorescence for Dye-1, Dye-2 and Dye-3 after vs before they bound with salmon sperm DNA in PBS.

[1] = tested on: soft-shelled turtle (Trionyx sinensis) liver RNA; assay: Fluorescence intensity of dye in PBS with soft-shelled turtle liver RNA (excitation 633 nm); format: binding; conditions: for ability to bind to nucleic acids versus Dye-0: concluded from FIG. 11; for increase in fluorescence intensity after binding RNA, comparison of dyes: identical concentrations, FIG. 11; for Relative fluorescence intensity after binding RNA / Relative fluorescence intensity before binding RNA: in PBS; for Relative fluorescence intensity after binding RNA: bound with turtle liver RNA; for Relative fluorescence intensity before binding RNA: no RNA; for Ratio of increase in fluorescence (after vs before binding): turtle liver RNA in PBS
Method: An amount of Dye-1 was accurately weighed and sufficiently dissolved in 2.5 mL methanol/ethylene glycol (50:50 vol/vol) to prepare a dye solution at a concentration of 5 mM. This solution was filtered before use. Separate amounts of soft-shelled turtle (Trionyx sinensis) liver RNA were weighed and dissolved in PBS to obtain PBS buffers containing 30 μg/mL, 10 μg/mL, 3 μg/mL, 1 μg/mL of RNA. 2-μL aliquots of the prepared 5 mM dye solution were accurately measured and respectively combined in 1 mL PBS with 1 μL of the PBS buffers containing different concentrations of RNA. After reacting for a period of time, the complexes were detected for their emission spectra at the selected excitation wavelength of 633 nm. The detection temperature was at room temperature. The instrument used was fluorescence spectrophotometer Model FL-4500.
FIG. 4 is a comparison of the relative fluorescence strength of Dye-1 in PBS before and after it is bound with RNA. As can likewise be seen in the figure, when Dye-1 formed complexes with RNA, there occurred a rapid increase in fluorescence intensity accompanied by a certain degree of red shift of fluorescence, with the maximum […] peak at about 655 nm in the near-infrared region, which can avoid the interference from the background fluorescence of the organisms per se and therefore improve the accuracy of detection.
as §1, §2
Table 2 compares the ratios of increase in fluorescence for Dye-1, Dye-2 and Dye-3 after vs before they bound with soft-shelled turtle (Trionyx sinensis) liver RNA in PBS.
The detection procedure followed was that described in Example 10. The fluorescence spectra for Dye-1, Dye-2 and Dye-0 after they bound in identical concentrations with soft-shelled turtle (Trionyx sinensis) liver RNA are shown in FIG. 11.

[2] = Fluorescence quantum yield in ethanol; format: physicochemical; conditions: room temperature, triplicate, Rhodamine B as standard
Method: Each of the dyes were detected in triplicate at room temperature. Fluorescence quantum yields were calculated and averaged. With Rhodamine B as the standard (φF=0.97, ethanol), the fluorescence quantum yield for the known compound M in the ethanol solution was calculated to be φF=1.099×10^−2; for Dye-1, φF=1.590×10^−2; for Dye-2, φF=1.248×10^−2; and for Dye-3, φF=1.181×10^−2. The instrument used was UV-Vis spectrophotometer Model Lambda 35, and fluorescence spectrophotometer Model FL-4500.

[3] = ethanol; cited from earlier work

Compound: CCOC(=O)CCCN1C=C/C(=C\C=C\c2sc3ccccc3[n+]2CCO)c2ccccc21.[Br-] [Dye-2]
- fluorescence of the dye per se in PBS without nucleic acid (salmon sperm DNA): scarcely generated any fluorescence
- Relative fluorescence intensity after binding DNA (salmon sperm DNA): 102.93
- Relative fluorescence intensity before binding DNA (salmon sperm DNA): 0.97
- Ratio of increase in fluorescence (after vs before binding) (salmon sperm DNA): 106
- ability to bind to nucleic acids versus Dye-0 [1]: superior to Dye-0
- increase in fluorescence intensity after binding RNA, comparison of dyes [1]: marked increase in fluorescence intensity
- Relative fluorescence intensity after binding RNA [1]: 37.28
- Relative fluorescence intensity before binding RNA [1]: 0.97
- Ratio of increase in fluorescence (after vs before binding) [1]: 38
- fluorescence quantum yield φF [2]: 1.248×10^−2

Compound: CCN1C=C/C(=C\C=C\c2sc3ccccc3[n+]2CC)c2ccccc21.[I-] [Dye-0, reference compound]
- fluorescence quantum yield φF [2]: 1.099×10^−2

Compound: CCN(CC)c1ccc2c(-c3ccccc3C(=O)O)c3ccc(=[N+](CC)CC)cc-3oc2c1.[Cl-] [Rhodamine B]
- fluorescence quantum yield φF of the standard [3]: 0.97

Compound: CCOC(=O)CCCCC[n+]1c(/C=C/C=C2\C=CN(Cc3ccccc3)c3ccccc32)sc2ccccc21.[Br-] [Dye-1]
- change of fluorescence emission strength of dye/DNA complexes with DNA concentration (salmon sperm DNA; DNA buffers 0.1-3 mg/mL, FIG. 1): increased rapidly with the increase in DNA concentration
- fluorescence of the dye per se in PBS without nucleic acid (salmon sperm DNA): scarcely generated any fluorescence
- Relative fluorescence intensity after binding DNA (salmon sperm DNA): 68.63
- Relative fluorescence intensity before binding DNA (salmon sperm DNA): 1.82
- Ratio of increase in fluorescence (after vs before binding) (salmon sperm DNA): 38
- change of fluorescence emission strength of dye/RNA complexes with RNA concentration ([1]; RNA buffers 1-30 μg/mL, FIG. 3): increased rapidly with the increase in RNA concentration
- ability to bind to nucleic acids versus Dye-0 [1]: superior to Dye-0
- increase in fluorescence intensity after binding RNA, comparison of dyes [1]: largest magnitude of increase in fluorescence intensity
- Relative fluorescence intensity after binding RNA [1]: 83.24
- Relative fluorescence intensity before binding RNA [1]: 1.82
- Ratio of increase in fluorescence (after vs before binding) [1]: 46
- fluorescence quantum yield φF [2]: 1.590×10^−2

Compound: OCCN1C=C/C(=C\C=C\c2sc3ccccc3[n+]2CCOc2ccccc2)c2ccccc21.[Br-] [Dye-3]
- fluorescence of the dye per se in PBS without nucleic acid (salmon sperm DNA): weak fluorescence
- Relative fluorescence intensity after binding DNA (salmon sperm DNA): 94.37
- Relative fluorescence intensity before binding DNA (salmon sperm DNA): 1.64
- Ratio of increase in fluorescence (after vs before binding) (salmon sperm DNA): 55
- Relative fluorescence intensity after binding RNA [1]: 33.57
- Relative fluorescence intensity before binding RNA [1]: 1.64
- Ratio of increase in fluorescence (after vs before binding) [1]: 20
- fluorescence quantum yield φF [2]: 1.181×10^−2
